# Source: ChEMBL document CHEMBL5042477, “Potent Cyclic Peptide Inhibitors of FXIIa Discovered by mRNA Display with Genetic Code Reprogramming” (J Med Chem, 2021)
# pEC50, pIC50: −log10 of the molar value. Active and inactive are the calls of the source. The rule behind the calls is not given here. Where a SMILES comes first, the peptide text is derived from it. Bridges are numbered along the chain shown (N, C = ends).
# How the values were obtained:
# Coagulation factor XII [1] = biological target: T1, Coagulation factor XII (Homo sapiens, UniProt P00748); assay: Inhibition of human factor 12a using H-D-Pro-Phe-Arg-p-nitroanilide as chromogenic substrate assessed as liberation of p-nitroaniline measured every 5 mins for 60 min by multimode plate reader analysis
# T1 sequence (P00748 whole entry): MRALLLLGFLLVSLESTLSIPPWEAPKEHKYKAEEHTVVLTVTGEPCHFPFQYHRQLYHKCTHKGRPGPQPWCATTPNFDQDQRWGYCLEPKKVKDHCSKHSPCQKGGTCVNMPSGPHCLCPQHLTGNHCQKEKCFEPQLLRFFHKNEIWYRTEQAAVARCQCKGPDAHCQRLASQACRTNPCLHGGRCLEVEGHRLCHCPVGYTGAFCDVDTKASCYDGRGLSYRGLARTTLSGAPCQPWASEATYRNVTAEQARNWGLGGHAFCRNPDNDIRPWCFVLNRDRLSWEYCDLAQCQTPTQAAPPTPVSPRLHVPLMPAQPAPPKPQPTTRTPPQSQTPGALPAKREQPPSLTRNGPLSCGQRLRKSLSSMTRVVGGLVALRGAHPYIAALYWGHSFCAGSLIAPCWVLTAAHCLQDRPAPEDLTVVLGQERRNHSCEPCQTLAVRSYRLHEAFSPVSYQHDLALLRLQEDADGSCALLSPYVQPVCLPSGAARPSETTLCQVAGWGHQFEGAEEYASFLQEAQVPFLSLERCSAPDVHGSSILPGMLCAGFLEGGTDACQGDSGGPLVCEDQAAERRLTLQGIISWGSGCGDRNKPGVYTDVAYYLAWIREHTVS
# Coagulation factor XII [2] = biological target: T1, Coagulation factor XII; assay: Inhibition of human factor 12a using H-D-Pro-Phe-Arg-p-nitroanilide as chromogenic substrate assessed as liberation of p-nitroaniline in presence of BSA measured every 5 mins for 60 min by multimode plate reader analysis
# Coagulation factor X = Coagulation factor X (Homo sapiens, UniProt P00742); assay: Inhibition of human factor 10a using methoxycarbonyl-D-Nle-Gly-Arg-pNA as substrate measured after 60 mins by microplate reader analysis
# Plasma kallikrein = Plasma kallikrein (Homo sapiens, UniProt P03952); assay: Inhibition of plasma kallikrein (unknown origin); type: cell-free
# [3] = biological target: Urokinase-type plasminogen activator (Homo sapiens, UniProt P00749); assay: Inhibition of Urokinase-type plasminogen activator (unknown origin)
# Coagulation factor VII = biological target: T2, Coagulation factor VII (Homo sapiens, UniProt P08709); assay: Inhibition of factor 7a (unknown origin)
# T2 sequence (P08709 whole entry): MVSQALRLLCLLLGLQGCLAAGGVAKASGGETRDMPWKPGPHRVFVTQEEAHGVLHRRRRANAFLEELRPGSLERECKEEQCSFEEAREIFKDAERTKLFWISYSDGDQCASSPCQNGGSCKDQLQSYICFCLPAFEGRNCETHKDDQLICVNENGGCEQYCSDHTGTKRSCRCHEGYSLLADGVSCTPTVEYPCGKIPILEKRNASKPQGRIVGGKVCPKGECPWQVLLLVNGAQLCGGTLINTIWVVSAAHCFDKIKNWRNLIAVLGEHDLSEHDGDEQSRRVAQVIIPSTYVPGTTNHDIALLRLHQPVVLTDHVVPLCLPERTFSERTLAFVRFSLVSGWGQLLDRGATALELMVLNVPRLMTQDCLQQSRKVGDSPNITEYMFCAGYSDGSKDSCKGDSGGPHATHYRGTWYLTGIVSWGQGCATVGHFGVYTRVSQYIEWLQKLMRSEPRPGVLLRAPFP
# Trypsin = Trypsin (Homo sapiens, UniProt P07477+P07478+P35030); assay: Inhibition of trypsin (unknown origin); type: protein assay
# Plasminogen = Plasminogen (Homo sapiens, UniProt P00747); assay: Inhibition of plasmin (unknown origin)
# Plasma [4] = assay: Anticoagulant activity in pooled human plasma assessed as prolongation of activated partial thromboplastin time at 12.5 uM incubated for 7 mins; type: functional, cell-free
# Plasma [5] = assay: Anticoagulant activity in pooled human plasma assessed as prolongation of prothrombin time at 12.5 uM incubated for 7 mins; type: functional, cell-free
# Plasma [6] = assay: Anticoagulant activity in pooled human plasma assessed as reduction in ellagic acid induced thrombin generation using Z-GGR-AMC as fluorogenic substrate by calibrated automated thrombogram analysis; type: functional, cell-free
# Homo sapiens = species on record: Homo sapiens; assay: Selectivity index, ratio of IC50 for inhibition of human factor 12a using H-D-Pro-Phe-Arg-p-nitroanilide as chromogenic substrate to IC50 for inhibition of human factor 10a using methoxycarbonyl-D-Nle-Gly-Arg-pNA as substrate
# [7] = biological target: T3, Coagulation factor XII (Homo sapiens) (UniProt P00748); assay: Inhibition of human factor 12a using H-D-Pro-Phe-Arg-p-nitroanilide as chromogenic substrate assessed as liberation of p-nitroaniline at […] measured every 5 mins for 60 min by multimode plate reader analysis
# T3 sequence (whole entry): T1 sequence (P00748 whole entry)
# Plasma [8] = assay: Anticoagulant activity in pooled human plasma assessed as prolongation of activated partial thromboplastin time at 1.25 uM incubated for 7 mins; type: functional, cell-free
# Plasma [9] = assay: Anticoagulant activity in pooled human plasma assessed as reduction in ellagic acid induced thrombin generation using Z-GGR-AMC as fluorogenic substrate at 4 uM by calibrated automated thrombogram analysis; type: functional, cell-free
# [10] = biological target: T3, Coagulation factor XII (Homo sapiens); assay: Inhibition of human factor 12a activation in citrated pooled human plasma assessed as inhibition of bradykinin release incubated for 10 mins followed by kaolin addition and measured after 15 mins by ELISA; type: cell-free; details: dose 1-200 µM, time 25.0 min
# [11] = Stability in pooled human plasma measured upto 24 hrs by UPLC-MS analysis; type: ADME, cell-free
# Plasma [12] = assay: Anticoagulant activity in FXII-deficient human plasma assessed as effect on total thrombin generation using Z-GGR-AMC as fluorogenic substrate at 8 uM by calibrated automated thrombogram analysis; type: functional, cell-free
# [13] = biological target: T3, Coagulation factor XII (Homo sapiens); assay: Inhibition of human factor 12a using H-D-Pro-Phe-Arg-p-nitroanilide as chromogenic substrate assessed as liberation of p-nitroaniline at 2 mM measured every 5 mins for 60 min by multimode plate reader analysis
# Chain of Coagulation factor X (P00742 41-179 limits assumed): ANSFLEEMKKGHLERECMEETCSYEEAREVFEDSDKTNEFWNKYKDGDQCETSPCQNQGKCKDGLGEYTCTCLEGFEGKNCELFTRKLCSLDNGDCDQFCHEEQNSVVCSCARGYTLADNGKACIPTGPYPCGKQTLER
# Chain of Coagulation factor X (P00742 235-488 limits assumed): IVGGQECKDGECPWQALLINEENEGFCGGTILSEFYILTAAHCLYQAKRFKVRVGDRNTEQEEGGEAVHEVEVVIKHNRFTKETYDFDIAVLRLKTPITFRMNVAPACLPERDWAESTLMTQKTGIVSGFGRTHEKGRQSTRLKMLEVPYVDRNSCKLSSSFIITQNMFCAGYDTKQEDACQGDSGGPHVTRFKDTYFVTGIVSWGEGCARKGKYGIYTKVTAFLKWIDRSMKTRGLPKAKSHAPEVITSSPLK
# Chain of Plasma kallikrein (P03952 20-390 limits assumed): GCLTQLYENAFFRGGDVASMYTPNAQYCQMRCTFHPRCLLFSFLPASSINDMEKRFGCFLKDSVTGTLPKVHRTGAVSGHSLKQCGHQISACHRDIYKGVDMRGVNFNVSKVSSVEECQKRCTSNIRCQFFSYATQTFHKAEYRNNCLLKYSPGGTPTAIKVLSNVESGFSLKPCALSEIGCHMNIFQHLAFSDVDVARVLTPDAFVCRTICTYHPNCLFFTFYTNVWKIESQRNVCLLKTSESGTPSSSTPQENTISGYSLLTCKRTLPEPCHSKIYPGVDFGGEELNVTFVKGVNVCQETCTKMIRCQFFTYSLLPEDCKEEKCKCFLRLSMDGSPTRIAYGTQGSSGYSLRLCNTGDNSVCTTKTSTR
# Chain of Plasma kallikrein (P03952 391-638 limits assumed): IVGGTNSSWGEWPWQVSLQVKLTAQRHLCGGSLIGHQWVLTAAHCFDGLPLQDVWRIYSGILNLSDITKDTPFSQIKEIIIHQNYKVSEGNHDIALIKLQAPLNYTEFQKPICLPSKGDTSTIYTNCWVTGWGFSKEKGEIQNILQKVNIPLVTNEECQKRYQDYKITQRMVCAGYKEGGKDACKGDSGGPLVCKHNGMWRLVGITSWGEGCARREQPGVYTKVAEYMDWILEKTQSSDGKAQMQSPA
# Chain of Plasminogen (P00747 97-580 limits assumed): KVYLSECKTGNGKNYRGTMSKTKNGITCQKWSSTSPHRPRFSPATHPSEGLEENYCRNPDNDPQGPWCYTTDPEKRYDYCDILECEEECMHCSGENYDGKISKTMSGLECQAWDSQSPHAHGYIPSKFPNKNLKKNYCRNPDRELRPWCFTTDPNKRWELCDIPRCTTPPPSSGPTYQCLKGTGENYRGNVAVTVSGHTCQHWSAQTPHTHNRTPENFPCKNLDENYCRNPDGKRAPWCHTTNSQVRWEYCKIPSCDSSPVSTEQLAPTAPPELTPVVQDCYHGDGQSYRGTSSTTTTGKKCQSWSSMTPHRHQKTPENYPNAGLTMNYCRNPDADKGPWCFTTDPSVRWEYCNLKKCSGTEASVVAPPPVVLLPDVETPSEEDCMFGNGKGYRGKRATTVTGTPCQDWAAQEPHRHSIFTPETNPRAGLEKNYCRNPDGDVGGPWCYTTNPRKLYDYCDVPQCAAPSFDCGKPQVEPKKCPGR
# Chain of Plasminogen (P00747 581-810 limits assumed): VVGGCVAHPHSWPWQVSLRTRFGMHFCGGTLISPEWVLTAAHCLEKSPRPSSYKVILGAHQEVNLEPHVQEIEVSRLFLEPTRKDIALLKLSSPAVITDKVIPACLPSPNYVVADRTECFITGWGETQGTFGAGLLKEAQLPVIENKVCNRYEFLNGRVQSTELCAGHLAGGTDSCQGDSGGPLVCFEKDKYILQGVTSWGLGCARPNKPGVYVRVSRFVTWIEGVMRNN
Compound,pIC50 (Coagulation factor XII [1]),pIC50 (Coagulation factor XII [2]),pIC50 (Coagulation factor X),pIC50 (Plasma kallikrein),pIC50 [3],pIC50 (Coagulation factor VII),IC50 (Trypsin) [µM],pIC50 (Plasminogen),Activity (Plasma [4]),Activity (Plasma [5]),pEC50 (Plasma [6]),Ratio IC50 (Homo sapiens),inhibition [7],Activity (Plasma [8]),Activity (Plasma [9]),inhibition [10],Stability [11],Activity (Plasma [12]),inhibition [13]
CC(C)C[C@@H]1NC(=O)[C@H](Cc2ccc(O)cc2)NC(=O)CSC[C@@H](C(=O)N[C@@H](CCCNC(=N)N)C(=O)N[C@@H](CCCNC(=N)N)C(=O)N[C@@H](C)C(=O)N2CCC[C@H]2C(=O)N[C@@H](CC(N)=O)C(=O)N[C@@H](CO)C(N)=O)NC(=O)[C@H](CC(C)C)NC(=O)[C@H]([C@@H](C)O)NC(=O)[C@H](Cc2ccccc2)NC(=O)[C@H](CCCNC(=N)N)NC1=O ({CH2CO}-YLRFTLCRRAPNS-NH2; thioether N-7),7.01,6.80,4.46,4.37,< 4.00,< 4.00,61,4.21,Active,Active,5.85,100,,,,,,,
CC(C)C[C@@H]1NC(=O)[C@H](Cc2ccc(O)cc2)NC(=O)CSC[C@@H](C(N)=O)NC(=O)CNC(=O)CNC(=O)[C@H](CCCNC(=N)N)NC(=O)[C@H](CC(=O)O)NC(=O)[C@H](CCCCN)NC(=O)[C@@H]2CCCN2C(=O)[C@H](CCCNC(=N)N)NC(=O)[C@H](Cc2ccccc2)NC(=O)[C@@H](CCCNC(=N)N)NC1=O,,,,,,,,,,,,,inactive,,,,,,
CC(C)C[C@@H]1NC(=O)[C@H](Cc2ccc(O)cc2)NC(=O)CSC[C@@H](C(N)=O)NC(=O)CNC(=O)CNC(=O)[C@H](CCCNC(=N)N)NC(=O)[C@H](CC(=O)O)NC(=O)[C@H](CCCCN)NC(=O)[C@@H]2CCCN2C(=O)[C@H](CCCNC(=N)N)NC(=O)[C@H](Cc2ccccc2)NC(=O)[C@H](CCCNC(=N)N)NC1=O,7.21,7.21,4.23,< 4.00,< 4.00,< 4.00,> 31,< 4.00,Active,Active,6.15,100,,Active,Active,Dose-Dependent Effect,Stable,inactive,
Ac-YLRFR-NH2,,,,,,,,,,,,,,,,,,,inactive
CC(C)C[C@@H]1NC(=O)[C@H](Cc2ccc(O)cc2)NC(=O)CSC[C@@H](C(N)=O)NC(=O)CNC(=O)CNC(=O)[C@H](CCC(N)=O)NC(=O)[C@H](CC(N)=O)NC(=O)[C@H]([C@@H](C)O)NC(=O)[C@@H]2CCCN2C(=O)[C@H](CCCCN)NC(=O)[C@H](CC(C)C)NC(=O)[C@H](CCCNC(=N)N)NC1=O ({CH2CO}-YLRLKPTNQGGC-NH2; thioether N-12),6.48,6.21,< 4.00,< 4.00,< 4.00,< 4.00,12,< 4.00,Active,,5.55,,,,,Dose-Dependent Effect,Stable,inactive,
